Source: patent publication US20140227311A1, “Method for Removing Immunosuppressive Properties of HIV Envelope Glycoproteins” (priority 2011, published 2014)
Ends that are not written are not given here.

System: CTLL-2 cells
Type: cell-based
Conditions: dimerized peptides (disulfide); 24 h; wt effect at concentrations of 75 or 100 uM; FIG. 1

Sequence: LQARILAVERYLKDQQLLGIWGCGGEKEKEK (also: dimerized) [wt ISD, dimerized wild-type ISD peptide with GGEKEKEK tail]
- inhibition of the proliferation of CTLL2 cells: inhibits the proliferation of the CTLL2 cells at concentrations of 75 or 100 uM
